Laboratory results published in patent publication US20090170869A1, “PIPERAZINE DERIVATIVE HAVING AFFINITY FOR THE HISTAMINE H3 RECEPTOR” (priority 2007, published 2009).
Where a name gives a salt, the structure may show the parent alone.

Assays:
[1] = system: rodent models; details: five choice task, object recognition, elevated plus maze, acquisition of novel task, passive avoidance; literature reports; cited from earlier work
[2] = biological target: H3 receptor (Sus scrofa, UniProt A0A287B9V8); assay: Pig-PET study with [11C]GSK189254: pig brain H3 receptor occupancy over time and kon-koff limited model; details: 50 micrograms/kg i.v.; for Measured H3 receptor occupancy @ 10 min: 10 minutes post administration; for Measured H3 receptor occupancy @ 2.5 h: 2.5 hours post administration; for Measured H3 receptor occupancy @ 6 h: 6 hours post administration; for Kd: Kd (koff/kon); for koff: iv; for koff / kon: Salt B
H3 receptor, sequence (A0A287B9V8 1-448): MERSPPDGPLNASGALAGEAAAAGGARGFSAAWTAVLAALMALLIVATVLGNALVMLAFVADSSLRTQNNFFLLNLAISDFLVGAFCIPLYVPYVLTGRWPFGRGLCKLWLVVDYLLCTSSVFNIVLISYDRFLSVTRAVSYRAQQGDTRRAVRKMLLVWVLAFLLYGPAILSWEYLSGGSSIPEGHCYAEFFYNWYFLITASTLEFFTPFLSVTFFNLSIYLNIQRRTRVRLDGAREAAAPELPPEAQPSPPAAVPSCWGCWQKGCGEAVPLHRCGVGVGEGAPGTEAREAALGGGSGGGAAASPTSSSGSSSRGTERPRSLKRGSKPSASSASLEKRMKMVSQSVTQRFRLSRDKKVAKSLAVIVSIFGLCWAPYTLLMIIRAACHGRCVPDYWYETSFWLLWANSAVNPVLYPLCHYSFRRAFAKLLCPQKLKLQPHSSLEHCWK

[3] = Plasma clearance in the pig-PET study; assay type: in vivo; details: Yorkshire-Landrace, iv, 50 ug/kg, 50 micrograms/kg i.v.
[4] = biological target: T1, brain histamine H3 receptor (Rattus norvegicus, UniProt Q9QYN8); assay: Rat ex vivo binding studies - rat brain histamine H3 receptor occupancy ([3H]-R-α-methylhistamine); assay type: in vivo; details: for inhibition of [3H]-R-α-methylhistamine specific binding to the H3 receptor (surrogate for rat brain H3 receptor occupancy): 10 mg/kg oral; for specific binding of [3H]-R-α-methylhistamine to the H3 receptor: rats n=3, 10 mg/kg oral, mean ± SEM
T1 construct: from tissue; host or cells: cerebral cortex homogenate of adult male Lister hooded rats
T1 sequence (Q9QYN8 whole entry): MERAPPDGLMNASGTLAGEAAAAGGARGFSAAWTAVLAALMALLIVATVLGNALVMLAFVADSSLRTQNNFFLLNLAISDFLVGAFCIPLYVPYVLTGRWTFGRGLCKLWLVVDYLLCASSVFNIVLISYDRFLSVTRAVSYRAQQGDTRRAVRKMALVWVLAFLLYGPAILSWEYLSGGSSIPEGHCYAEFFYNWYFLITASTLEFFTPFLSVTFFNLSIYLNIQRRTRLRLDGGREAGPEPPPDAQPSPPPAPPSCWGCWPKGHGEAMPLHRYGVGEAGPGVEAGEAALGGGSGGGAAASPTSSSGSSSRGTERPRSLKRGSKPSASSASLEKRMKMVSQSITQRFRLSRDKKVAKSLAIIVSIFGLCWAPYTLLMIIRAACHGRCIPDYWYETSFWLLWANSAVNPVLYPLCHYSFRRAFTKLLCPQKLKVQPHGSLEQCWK
Protocol: Ex vivo binding studies were carried out to determine brain histamine H3 receptor occupancy in rats at certain time points after oral administration of a test compound.
Adult male rats (Lister hooded 200-250 g, Charles River, UK) received vehicle (1% w/v aqueous methylcellulose) (control) or the test compound (10 mg/kg) by oral gavage (n=3 per group) and were sacrificed 1 or 4 hours following oral dosing. The 1 hour and 4 hour studies were not necessarily done on the same day. Terminal blood samples were collected and brains rapidly removed. Cerebral cortex tissue was dissected from half of each brain for ex vivo binding; the other half brain can be used for pharmacokinetic analysis of brain concentrations of each compound. All dissected tissue samples were snap-frozen in liquid nitrogen, and stored at −80° C. until use. The tissues were rapidly thawed and homogenised in approximately 30 volumes of ice cold assay reaction buffer. The assay reaction buffer contained 50 mM Tris-HCl (made up using Trizma pre-set crystals pH 7.7 @25° C., Sigma cat. No. T8068-250G) and 5 mM EDTA, with a final buffer pH of 7.2 to 7.8, usually about 7.4. The crude homogenate (600-800 μg/well) was then used to measure H3 receptor binding using [^3H]-R-α-methylhistamine as radioligand. Assays measuring total binding of [^3H]-R-α-methylhistamine consisted of 50 μl assay reaction buffer, 400 μl of homogenate (corresponding to 600-800 μg/well) and 50 μl of 2 nM R(−)α-Methyl[imidazole-2,5(n)-3H]histamine dihydrochloride ([^3H]-R-α-methylhistamine; specific activity, 24 Ci mmol^−1, Amersham Biosciences, catalogue no. TRK1017). Incubations with [^3H]-R-α-methylhistamine were for 45 min at 30° C. Non-specific binding of [^3H]-R-α-methylhistamine was determined in parallel using the same assay except that 50 μl of 10 μM imetit (an H3 receptor agonist, e.g. available from Tocris) was used instead of the 50 μl of assay reaction buffer. The experiments were terminated by rapid filtration through Whatman GF/B filters (pre-soaked in 0.3% v/v polyethyleneimine (PEI)), and then the filters were washed through with 4×5 ml of ice cold harvesting buffer. The harvesting buffer contained 50 mM Tris-HCl (from Trizma pre-set crystals pH 7.7 @ 25° C.) and 5 mM MgCl2, with a final buffer pH of 7.2 to 7.8, usually about 7.4. Filters were dried and added to vials each containing 4 ml Ultima Gold MV scintillation fluid (Hewlett Packard) and radioactivity determined by liquid scintillation spectrometry using a Packard Tri-Carb 2500TR liquid scintillation counter.
Specific binding of [^3H]-R-α-methylhistamine to the H3 receptor was determined by the subtraction of the value obtained for non-specific binding from the value obtained for total binding.
Protein concentrations were determined using the Bradford assay method (Bio-Rad
Protein Assay Dye Reagent Concentrate, catalogue no. 500-0006; from Bio-Rad Laboratories GmbH, Heidemannstrasse 164, 80939 Muenchen, Germany; or from Bio-Rad, York, UK) with bovine serum albumin as a standard. Specific radioactivity in the samples was corrected for protein (i.e. per microgram of protein).
The specific binding of [^3H]-R-α-methylhistamine to the H3 receptor is expressed as a mean (n=3 rats)±SEM (standard error of the mean), as a percentage of vehicle-treated control animals. Data is also expressed as inhibition of [^3H]-R-α-methylhistamine specific binding to the H3 receptor, as a surrogate measure for H3 receptor occupancy by the test compound, calculated as 100% minus the % mean specific binding of [^3H]-R-α-methylhistamine to the H3 receptor.

[5] = Preliminary HCl-salt-formation and crystallisation experiments (crystal form stability); assay type: physicochemical; details: hydrochloride salt crystal forms; without being bound by theory
From the text: Crystalline Form 1 (or a predominance of crystalline Form 1) is often formed initially depending on the conditions, but, depending on the conditions (such as the type of solvent and the solubility of crystalline Form 1 in it, and/or the temperature and/or temperature time course, and/or the contact time of the crystalline Form 1 with the solvent), the crystalline Form 1 can then often convert to crystalline Form 2 to a greater or lesser extent when in contact with a suitable solvent i.e. a solvent suitable for converting crystalline Form 1 to crystalline Form 2.

[6] = biological target: T2, histamine H3 receptor (Rattus norvegicus, UniProt Q9QYN8); details: following oral administration to the rat; Medhurst et al. 2007; cited from earlier work
T2 construct: host or cells: rat cortex
T2 sequence (Q9QYN8 whole entry): as above

[7] = system: rats; details: at certain oral doses; passive avoidance, water maze, object recognition, attentional set shift; Medhurst et al. 2007; cited from earlier work
[8] = mean ± standard deviation, n=3 pigs
[9] = average model (from average plasma data and average occupancy)

## S=C(NC1CCCCC1)N1CCC(c2cnc[nH]2)CC1 [thioperamide]
[1]
  cognitive effect in rodent models: cognitive enhancing properties

## O=C(c1ccc(OCCCc2cnc[nH]2)cc1)C1CC1 [ciproxifan]
[1]
  cognitive effect in rodent models: cognitive enhancing properties

## NC(=NCc1ccc(Cl)cc1)SCCCc1cnc[nH]1 [clobenpropit]
[1]
  cognitive effect in rodent models: cognitive enhancing properties

## CC(C)N1CCCN(C(=O)c2ccc(OC3CCOCC3)cc2)CC1 [Salt B, reference compound]
[2]; [8]
  Measured H3 receptor occupancy @ 10 min: 63% ± 10%
  Measured H3 receptor occupancy @ 2.5 h: 37% ± 16%
  Measured H3 receptor occupancy @ 6 h: 33% ± 4%
[2]; pig 1
  Measured H3 receptor occupancy @ 10 min: 51%
  Measured H3 receptor occupancy @ 2.5 h: 19%
  Measured H3 receptor occupancy @ 6 h: 30%
[2]; pig 2
  Measured H3 receptor occupancy @ 10 min: 69%
  Measured H3 receptor occupancy @ 2.5 h: 49%
  Measured H3 receptor occupancy @ 6 h: 32%
[2]; pig 3
  Measured H3 receptor occupancy @ 10 min: 68%
  Measured H3 receptor occupancy @ 2.5 h: 43%
  Measured H3 receptor occupancy @ 6 h: 38%
[2]; [9]
  Kd: 5.2 nM
  kon: 0.0025 min⁻¹
[2]; mean of pigs 1-3
  Kd: 4.76 nM
  kon: 0.0024 min⁻¹
[2]; pig 1, in vivo PK/RO model
  Kd: 5.6 nM
[2]; pig 2, in vivo PK/RO model
  Kd: 5.05 nM
[2]; pig 3, in vivo PK/RO model
  Kd: 3.61 nM
[2]; PIG1, pig, pig 1, estimated model parameter
  koff: 5.5e-05 s⁻¹
[2]; pig 1, estimated model parameter
  kon: 0.0017 min⁻¹
[2]; pig 2, estimated model parameter
  kon: 0.0024 min⁻¹
[2]; pig 3, estimated model parameter
  kon: 0.0031 min⁻¹
[2]; pig, average model (from average plasma data and average occupancy)
  koff: 7.5e-05 s⁻¹
[2]; pig, mean of pigs 1-3
  koff: 6.33e-05 s⁻¹
[2]; pig, pig 2, estimated model parameter
  koff: 7e-05 s⁻¹
[2]; pig, pig 3, estimated model parameter
  koff: 6.5e-05 s⁻¹
[3]; average model (from average plasma data)
  clearance: 48.3 mL/min
[3]; mean of pigs 1-3
  clearance: 46.7 mL/min
[3]; pig 1
  clearance: 60 mL/min
[3]; pig 2
  clearance: 30 mL/min
[3]; pig 3
  clearance: 46.7 mL/min
[4]; 1 hour after dosing
  inhibition of [3H]-R-α-methylhistamine specific binding to the H3 receptor (surrogate for rat brain H3 receptor occupancy): about 60%
[4]; 4 hours after dosing
  inhibition of [3H]-R-α-methylhistamine specific binding to the H3 receptor (surrogate for rat brain H3 receptor occupancy): about 12%
[4]; sacrificed 1 hour after dosing
  specific binding of [3H]-R-α-methylhistamine to the H3 receptor: 40%+4%
[4]; sacrificed 4 hours after dosing
  specific binding of [3H]-R-α-methylhistamine to the H3 receptor: 88%+6%

## CC(C)N1CCN(C(=O)c2ccc(OC3CCOCC3)cc2)CC1 [Example 3]
[5]
  thermodynamic stability relative to crystalline Form 1: more thermodynamically stable than crystalline Form 1

## CC(C)(C)CCC#C[C@@H]1C[C@H]1c1c[nH]cn1 [GT-2331]
[1]
  cognitive effect in rodent models: cognitive enhancing properties

## CNC(=O)c1ccc(Oc2ccc3c(c2)CCN(C2CCC2)CC3)nc1 [GSK189254]
[6]
  [3H]R-α-methylhistamine ex vivo binding in the rat cortex: inhibited
[7]
  performance of rats in cognition paradigms: improved performance
